Structures are written as SMILES.

What is called DC50 is the concentration giving 50% degradation. A low value points to a more potent degrader.

The target in the experiment is T1, EGFR protein in NCI-H1975 EGFR-L858R-T790M-C797S cells (Homo sapiens, UniProt P00533, C797S/L858R/T790M).
T1 construct: expressed in transfected cells; host or cells: NCI-H1975 EGFR-L858R-T790M-C797S (kept under hygromycin selection)
Description: Degradation activity on EGFR protein in NCI-H1975 EGFR-L858R-T790M-C797S cells, Method II (western blot, 48 h). The format is cell-based. As to conditions: 48 h incubation, EGFR protein relative to DMSO control. How it is done:
Protein sample preparation: NCI-H1975 EGFR-L858R-T790M-C797S cells were cultured in an incubator at 37° C. with 5% CO2, and the culture medium was RPMI1640+10% FBS+100 μg/mL hygromycin. The cells in the logarithmic phase were collected, and the cell suspension was adjusted to an appropriate concentration with a hygromycin-free culture medium, plated on a 6-well plate at a density of 350000 cells/well and a volume of 2 mL, and cultured overnight in an incubator at 37° C. with 5% CO2. The next day, the compounds at different concentrations were added. DMSO control wells were provided, wherein the concentration of DMSO in all wells was 0.1%. The 6-well plate was cultured in an incubator at 37° C. with 5% CO2 for 48 h, and then 30 μL of RIPA lysates (Beyotime, Cat. P0013B) containing protease inhibitors (Beyotime, Cat. P0013B) were added. The mixtures were lysed on ice for 30 min. Centrifugation was carried out at 13000 rpm/min at 4° C. for 20 minutes to collect protein supernatant samples, and protein quantification was performed by the BCA method. Western Blot detection samples were prepared.
Western blot detection: 20 μg of protein samples were added to each well, subjected to polyacrylamide gel electrophoresis and transferred to a membrane, and then diluted anti-EGFR (CST, Cat. 4267S) and […] (Kangchen, Cat. KC-5G4) antibodies were added and incubated overnight at 4° C. After washing the membrane, diluted goat anti-rabbit (Licor, Cat. 926-32211) and goat anti-mouse (Licor, Cat. 926-68070) antibodies were added and incubated in the dark for 45 min. Scanning and detection at wavelengths of 700 nm and 800 nm were performed with a far-infrared imaging system (Odyssey).
According to formula (3), the expression level of EGFR protein in the cells relative to the DMSO control group was calculated after incubation with different concentrations of compounds. wherein EGFRcompound was the fluorescence value of EGFR protein after incubation with compounds, and EGFRvehicle was the fluorescence value of EGFR protein in the DMSO control group. Using the Origin 9.2 software, the drug concentration DC50 values when the expression level of EGFR protein was 50% relative to the DMSO control group were calculated.
For orientation: A western blot detects proteins with antibodies after separation by electrophoresis.

T1 sequence (P00533 25-1210 T790M/C797S/L858R): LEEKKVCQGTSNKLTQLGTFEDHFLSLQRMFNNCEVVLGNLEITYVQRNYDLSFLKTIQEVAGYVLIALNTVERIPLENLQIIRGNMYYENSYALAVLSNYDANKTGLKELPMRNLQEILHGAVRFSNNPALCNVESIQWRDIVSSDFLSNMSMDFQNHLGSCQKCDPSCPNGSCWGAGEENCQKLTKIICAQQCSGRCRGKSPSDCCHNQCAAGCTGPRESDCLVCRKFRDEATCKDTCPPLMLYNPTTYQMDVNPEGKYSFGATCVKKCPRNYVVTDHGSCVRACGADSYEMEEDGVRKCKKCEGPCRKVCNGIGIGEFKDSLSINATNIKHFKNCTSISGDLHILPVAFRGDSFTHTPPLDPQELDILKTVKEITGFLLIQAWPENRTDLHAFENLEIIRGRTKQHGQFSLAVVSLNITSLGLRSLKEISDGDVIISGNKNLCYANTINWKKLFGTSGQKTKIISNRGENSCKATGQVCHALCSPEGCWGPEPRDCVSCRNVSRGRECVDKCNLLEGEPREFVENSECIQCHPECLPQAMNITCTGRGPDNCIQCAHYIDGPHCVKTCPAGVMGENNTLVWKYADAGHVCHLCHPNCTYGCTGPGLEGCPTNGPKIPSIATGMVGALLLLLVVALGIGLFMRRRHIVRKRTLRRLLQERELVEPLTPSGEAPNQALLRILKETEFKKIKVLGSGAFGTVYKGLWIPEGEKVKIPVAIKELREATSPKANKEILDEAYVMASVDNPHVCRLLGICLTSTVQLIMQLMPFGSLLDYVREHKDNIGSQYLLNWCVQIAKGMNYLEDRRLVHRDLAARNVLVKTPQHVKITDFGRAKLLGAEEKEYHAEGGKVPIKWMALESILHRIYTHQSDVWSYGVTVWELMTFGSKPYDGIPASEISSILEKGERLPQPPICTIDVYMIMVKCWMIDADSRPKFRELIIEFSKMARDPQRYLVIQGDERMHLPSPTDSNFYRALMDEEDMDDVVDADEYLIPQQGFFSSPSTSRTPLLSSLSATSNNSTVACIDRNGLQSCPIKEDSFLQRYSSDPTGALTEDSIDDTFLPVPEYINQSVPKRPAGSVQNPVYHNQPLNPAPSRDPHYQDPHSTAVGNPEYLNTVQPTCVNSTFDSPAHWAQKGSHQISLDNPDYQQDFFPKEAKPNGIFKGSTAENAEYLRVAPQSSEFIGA

In turn, `COc1cc(N2CCC(CN3CCN(c4ccc5c(c4)C(=O)N(C4CCC(=O)NC4=O)C5=O)CC3)CC2)c(-c2cnn(C)c2)cc1Nc1ncc(Cl)c(Nc2ccc(C3CC3)cc2P(C)(C)=O)n1` (centres unmarked) [Compound 107, 5-(4-((1-(4-((5-chloro-4-((4-cyclopropyl-2-(dimethylphosphoryl)phenyl)amino)pyrimidin-2-yl)amino)-5-methoxy-2-(1-methyl-1H-pyrazol-4-yl)phenyl)piperidin-4-yl)methyl)piperazin-1-yl)-2-(2,6-dioxopiperidin-3-yl)isoindoline-1,3-dione] yielded a DC50 of less than 100 nM. For `COc1cc(N2CCC(CN3CCN(c4ccc5c(c4)C(=O)N(C4CCC(=O)NC4=O)C5=O)CC3)CC2)c(-c2cnn(C)c2)cc1Nc1ncc(Br)c(Nc2ccc(C3CC3)cc2P(C)(C)=O)n1` (centres unmarked) [Compound 106, 5-(4-((1-(4-((5-bromo-4-((4-cyclopropyl-2-(dimethylphosphoryl)phenyl)amino)pyrimidin-2-yl)amino)-5-methoxy-2-(1-methyl-1H-pyrazol-4-yl)phenyl)piperidin-4-yl)methyl)piperazin-1-yl)-2-(2,6-dioxopiperidin-3-yl)isoindoline-1,3-dione], the DC50 was less than 100 nM.

Values taken from patent US20240269298A1, “PHOSPHONYL DERIVATIVE, AND COMPOSITION AND PHARMACEUTICAL APPLICATION THEREOF” (XIZANG HAISCO PHARMACEUTICAL CO., LTD., priority 2021, published 2024).
